# Experimental data from US10538555B2, “Macrocyclic inhibitors of the PD-1/PD-L1 and CD80(B7-1)/PD-L1 protein/protein interactions” (BRISTOL-MYERS SQUIBB COMPANY, priority 2014, dated 2020).
# *1 amine or outer side, *2 acyl side, *3 side chain or, on linkers, in order; H or OH if unused. Where a SMILES comes first, the peptide text is derived from it. Bridges are numbered along the chain shown (N, C = ends). [ ]: non-standard residue; d: D form. ξ: configuration not given here. Trp(1-CH2COOH) = N[C@@H](Cc1cn(CC(=O)O)c2ccccc12)C(=O)O; Trp(βS-Me) = C[C@@H](c1c[nH]c2ccccc12)[C@H](N)C(=O)O; Phe(3,4,5-F3) = N[C@@H](Cc1cc(F)c(F)c(F)c1)C(=O)O; NMePhe(4-Me) = CN[C@@H](Cc1ccc(C)cc1)C(=O)O; NMePhe(4-F) = CN[C@@H](Cc1ccc(F)cc1)C(=O)O; ξαMeW = CC(N)(Cc1c[nH]c2ccccc12)C(=O)O; NMeY = CN[C@@H](Cc1ccc(O)cc1)C(=O)O; Hyp = O=C(O)[C@@H]1C[C@@H](O)CN1; NMeF = CN[C@@H](Cc1ccccc1)C(=O)O; X1 = O=C([C@H]1COCCN1[*:1])[*:2]; dHyp = O=C(O)[C@H]1C[C@H](O)CN1; NMehSer = CN[C@@H](CCO)C(=O)O; NMeNle = CCCC[C@H](NC)C(=O)O; Tle = CC(C)(C)[C@H](N)C(=O)O; Pip = O=C(O)[C@@H]1CCCCN1; dPip = O=C(O)[C@H]1CCCCN1; NMeA = CN[C@@H](C)C(=O)O; Orn = NCCC[C@H](N)C(=O)O; Dab = NCC[C@H](N)C(=O)O; Dap = NC[C@H](N)C(=O)O; Sar = CNCC(=O)O
# Biological target: T1, Human PD-L1/PD-1 (Homo sapiens, UniProt Q9NZQ7)
# T1 construct: TVMV protease cleavage site (C); made in house; host or cells: HEK293T cells
# Assay: HTRF Human PD-L1/PD-1 binding assay (PD-1-Ig/PD-L1-His)
# Settings: PD-L1-His 10 nM, PD-1-Ig 20 nM; class symbol; read-out: HTRF Human PD-L1/PD-1 Binding Assay IC50 Range
# Summary of the method: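 Competition of macrocyclic peptides for PD-1/PD-L1 binding measured by HTRF in dPBS containing 0.1% BSA and 0.05% Tween-20. Compound and PD-L1-His (10 nM final) incubated 15 min before PD-1-Ig (20 nM final) and a further 15 min.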
# T1 sequence (Q9NZQ7 with tags, fused parts or gaps): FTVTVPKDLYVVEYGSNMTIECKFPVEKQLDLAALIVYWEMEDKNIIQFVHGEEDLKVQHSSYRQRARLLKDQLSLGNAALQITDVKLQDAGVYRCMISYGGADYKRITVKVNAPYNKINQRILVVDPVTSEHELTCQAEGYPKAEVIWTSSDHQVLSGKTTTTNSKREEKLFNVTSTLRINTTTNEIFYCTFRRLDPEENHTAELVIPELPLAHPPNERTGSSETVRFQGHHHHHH
row,Compound,IC50
1,"CCCC[C@H]1C(=O)N(C)CC(=O)N[C@@H](CC(N)=O)C(=O)N[C@@H](C(C)C)C(=O)N(C)[C@@H](Cc2ccccc2)C(=O)N[C@@H](Cc2ccc(O)cc2)C(=O)N(C)CC(=O)N[C@@H](Cc2c[nH]c3ccccc23)C(=O)N[C@@H](Cc2ccc(O)cc2)C(=O)N[C@@H](CCCN)C(=O)N[C@H](C(=O)NCC(N)=O)CSCC(=O)N[C@@H](Cc2ccccc2)C(=O)N(C)[C@@H](Cc2ccncc2)C(=O)N1C (single isomer, unassigned) [Example 3638-B]",0.01 to 0.0999 µM
2,CCCC[C@H]1C(=O)N(C)CC(=O)N[C@@H](CC(=O)O)C(=O)N[C@@H](C(C)(C)C)C(=O)N(C)[C@@H](Cc2ccccc2)C(=O)N[C@@H](Cc2ccc(O)cc2)C(=O)N(C)CC(=O)N[C@@H](Cc2c[nH]c3ccccc23)C(=O)N[C@@H](Cc2ccc(O)cc2)C(=O)N[C@@H](CC(C)C)C(=O)N[C@H](C(=O)NCC(N)=O)CSCC(=O)N[C@@H](Cc2ccccc2)C(=O)N(C)[C@@H](Cc2ccccc2)C(=O)N1C [Example 3211] ({CH2CO}-F[NMeF][NMeNle][Sar]D[Tle][NMeF]Y[Sar]WYLCG-NH2; thioether N-13),0.01 to 0.0999 µM
3,CCCC[C@H]1C(=O)N(C)CC(=O)N[C@@H](CC(=O)O)C(=O)N[C@@H](C(C)C)C(=O)N[C@@H](Cc2ccccc2)C(=O)N[C@@H](Cc2ccc(O)cc2)C(=O)N(C)CC(=O)NC(C)(Cc2c[nH]c3ccccc23)C(=O)N[C@@H](Cc2ccc(O)cc2)C(=O)N[C@@H](CC(C)C)C(=O)N[C@H](C(=O)NCC(N)=O)CSCC(=O)N[C@@H](Cc2ccccc2)C(=O)N(C)[C@@H](Cc2ccccc2)C(=O)N1C (stereo partly drawn) [Example 3639] ({CH2CO}-F[NMeF][NMeNle][Sar]DVFY[Sar][ξαMeW]YLCG-NH2; thioether N-13),1 to 10 µM
4,CCCC[C@H]1C(=O)N(C)[C@@H](CCCC)C(=O)N[C@@H](CC(C)C)C(=O)N[C@H](C(N)=O)CSCC(=O)N[C@@H](Cc2ccc(O)cc2)C(=O)N(C)[C@@H](C)C(=O)N[C@@H](CC(N)=O)C(=O)N2CCC[C@H]2C(=O)N[C@@H](CN)C(=O)N[C@@H](CC(C)C)C(=O)N2C[C@H](O)C[C@H]2C(=O)N[C@@H](Cc2c[nH]c3ccccc23)C(=O)N[C@@H](CCN)C(=O)N[C@@H](Cc2cn(CC(=O)O)c3ccccc23)C(=O)N1C [Example 6310] ({CH2CO}-Y[NMeA]NP[Dap]L[Hyp]W[Dab][Trp(1-CH2COOH)][NMeNle][NMeNle]LC-NH2; thioether N-14),0.01 to 0.0999 µM
5,CCCC[C@H]1C(=O)N(C)[C@@H](CCCC)C(=O)N[C@@H](CN)C(=O)N[C@H](C(=O)NCC(N)=O)CSCC(=O)N[C@@H](Cc2ccc(O)cc2)C(=O)N(C)[C@@H](C)C(=O)N[C@@H](CC(N)=O)C(=O)N2CCC[C@H]2C(=O)N[C@@H](CO)C(=O)N[C@@H](Cc2cnc[nH]2)C(=O)N2C[C@H](O)C[C@H]2C(=O)N[C@@H](Cc2c[nH]c3ccccc23)C(=O)N[C@@H](CCN)C(=O)N[C@@H](Cc2cn(CC(=O)O)c3ccccc23)C(=O)N1C [Example 6247] ({CH2CO}-Y[NMeA]NPSH[Hyp]W[Dab][Trp(1-CH2COOH)][NMeNle][NMeNle][Dap]CG-NH2; thioether N-14),0.001 to 0.0099 µM
6,CCCC[C@H]1C(=O)N(C)[C@@H](CCCC)C(=O)N[C@@H](C)C(=O)N[C@H](C(=O)NCC(N)=O)CSCC(=O)N[C@@H](Cc2ccc(O)cc2)C(=O)N2CCCC[C@H]2C(=O)N[C@@H](CC(=O)O)C(=O)N2CCC[C@H]2C(=O)N[C@@H](Cc2cnc[nH]2)C(=O)N[C@@H](CCC(N)=O)C(=O)N2C[C@H](O)C[C@H]2C(=O)N[C@@H](Cc2c[nH]c3ccccc23)C(=O)N[C@@H](CO)C(=O)N[C@@H](Cc2cn(CC(=O)O)c3ccccc23)C(=O)N1C [Example 1292] ({CH2CO}-Y[Pip]DPHQ[Hyp]WS[Trp(1-CH2COOH)][NMeNle][NMeNle]ACG-NH2; thioether N-14),0.01 to 0.0999 µM
7,CCCC[C@H]1C(=O)N(C)[C@@H](CCCC)C(=O)N[C@@H](CCCN)C(=O)N[C@H](C(=O)NCC(N)=O)CSCC(=O)N[C@@H](Cc2ccc(OC)cc2)C(=O)N(C)[C@@H](C)C(=O)N[C@@H](CC(N)=O)C(=O)N2CCC[C@H]2C(=O)N[C@@H](Cc2cnc[nH]2)C(=O)N[C@@H](CCCCN)C(=O)N2C[C@H](O)C[C@H]2C(=O)N[C@@H](Cc2c[nH]c3ccccc23)C(=O)N[C@@H](CCN)C(=O)N[C@@H](Cc2c[nH]c3ccccc23)C(=O)N1C [Example 7093] ({CH2CO}-Y(Me)[NMeA]NPHK[Hyp]W[Dab]W[NMeNle][NMeNle][Orn]CG-NH2; thioether N-14),0.001 to 0.0099 µM

# Now from value to molecule:
row,IC50,Compound
1,1 to 10 µM,"CCCC[C@H]1C(=O)N2CCC[C@@H]2C(=O)N[C@@H](CC(=O)O)C(=O)N[C@@H](C(C)C)C(=O)N(C)[C@@H](Cc2ccccc2)C(=O)N[C@@H](CCC(=O)O)C(=O)N2CCCC[C@@H]2C(=O)N[C@H](CCC(=O)O)C(=O)N[C@@H](Cc2ccc(O)cc2)C(=O)N[C@@H](CCCN)C(=O)N[C@H](C(=O)NCC(N)=O)CSCC(=O)N[C@@H](Cc2cc(F)c(F)c(F)c2)C(=O)N(C)[C@@H](Cc2ccc(F)cc2)C(=O)N1C [Example 10608] ({CH2CO}-[Phe(3,4,5-F3)][NMePhe(4-F)][NMeNle][dP]DV[NMeF]E[dPip][dE]Y[Orn]CG-NH2; thioether N-13)"
2,0.001 to 0.0099 µM,"COCC[C@H]1C(=O)N2C[C@@H](O)C[C@@H]2C(=O)N[C@@H](CC(=O)O)C(=O)N[C@@H](C(C)C)C(=O)N(C)[C@@H](Cc2ccccc2)C(=O)N[C@@H](CCC(N)=O)C(=O)N2CCOC[C@@H]2C(=O)N[C@@H](Cc2c[nH]c3ccccc23)C(=O)N[C@@H](Cc2ccc(O)cc2)C(=O)N[C@@H](CCCN)C(=O)N[C@H](C(=O)NCC(N)=O)CSCC(=O)N[C@@H](Cc2cc(F)c(F)c(F)c2)C(=O)N(C)[C@@H](Cc2ccccc2)C(=O)N1C [Example 9267] ({CH2CO}-[Phe(3,4,5-F3)][NMeF][NMehSer](Me)[dHyp]DV[NMeF]Q[X1]WY[Orn]CG-NH2; thioether N-13)"
3,0.01 to 0.0999 µM,CCCC[C@H]1C(=O)N(C)[C@@H](CCCC)C(=O)N[C@@H](CCCN)C(=O)N[C@H](C(=O)NCC(N)=O)CSCC(=O)N[C@@H](Cc2ccc(OC)cc2)C(=O)N(C)[C@@H](C)C(=O)N[C@@H](CC(N)=O)C(=O)N2CCC[C@H]2C(=O)N[C@@H](Cc2cnc[nH]2)C(=O)N[C@@H](CCCCN)C(=O)N2C[C@H](O)C[C@H]2C(=O)N[C@@H](Cc2c[nH]c3ccccc23)C(=O)N[C@@H](CC(=O)O)C(=O)N[C@@H](Cc2c[nH]c3ccccc23)C(=O)N1C [Example 7128] ({CH2CO}-Y(Me)[NMeA]NPHK[Hyp]WDW[NMeNle][NMeNle][Orn]CG-NH2; thioether N-14)
4,0.001 to 0.0099 µM,"CCCC[C@H]1C(=O)N2CCC[C@@H]2C(=O)N[C@@H](CC(=O)O)C(=O)N[C@@H](C(C)C)C(=O)N(C)[C@@H](Cc2ccccc2)C(=O)N[C@@H](CCC(=O)O)C(=O)N2CCOC[C@@H]2C(=O)N[C@@H](Cc2c[nH]c3ccccc23)C(=O)N[C@@H](Cc2ccc(O)cc2)C(=O)N[C@@H](CC(C)C)C(=O)N[C@H](C(=O)NCC(N)=O)CSCC(=O)N[C@@H](Cc2cc(F)c(F)c(F)c2)C(=O)N(C)[C@@H](Cc2ccc(O)cc2)C(=O)N1C [Example 10599] ({CH2CO}-[Phe(3,4,5-F3)][NMeY][NMeNle][dP]DV[NMeF]E[X1]WYLCG-NH2; thioether N-13)"
5,0.1 to 0.99 µM,"CCCC[C@H]1C(=O)N2C[C@@H](O)C[C@@H]2C(=O)N[C@@H](CC(=O)O)C(=O)N[C@@H](C(C)C)C(=O)N(C)[C@@H](Cc2ccc(C)cc2)C(=O)N[C@@H](CCCN)C(=O)N2CCC[C@@H]2C(=O)N[C@@H](Cc2c[nH]c3ccccc23)C(=O)N[C@@H](Cc2ccc(O)cc2)C(=O)N[C@@H](CC(C)C)C(=O)N[C@H](C(=O)NCC(N)=O)CSCC(=O)N[C@@H](Cc2cc(F)c(F)c(F)c2)C(=O)N(C)[C@@H](Cc2ccccc2)C(=O)N1C [Example 10119] ({CH2CO}-[Phe(3,4,5-F3)][NMeF][NMeNle][dHyp]DV[NMePhe(4-Me)][Orn][dP]WYLCG-NH2; thioether N-13)"
6,0.001 to 0.0099 µM,"CCCC[C@H]1C(=O)N2C[C@@H](O)C[C@@H]2C(=O)N[C@@H](CC(=O)O)C(=O)N[C@@H](C(C)C)C(=O)N(C)[C@@H](Cc2ccccc2)C(=O)N[C@@H](Cc2ccc(O)cc2)C(=O)N2C[C@@H](O)C[C@@H]2C(=O)N[C@@H](Cc2c[nH]c3ccccc23)C(=O)N[C@@H](Cc2ccc(O)cc2)C(=O)N[C@@H](CC(C)C)C(=O)N[C@H](C(=O)NCC(N)=O)CSCC(=O)N[C@@H](Cc2cc(F)c(F)c(F)c2)C(=O)N(C)[C@@H](Cc2ccccc2)C(=O)N1C [Example 9273] ({CH2CO}-[Phe(3,4,5-F3)][NMeF][NMeNle][dHyp]DV[NMeF]Y[dHyp]WYLCG-NH2; thioether N-13)"
7,1 to 10 µM,CCCC[C@H]1C(=O)N[C@@H](CC(N)=O)C(=O)N2CCC[C@H]2C(=O)N[C@@H](Cc2c[nH]cn2)C(=O)N[C@@H](CCC(N)=O)C(=O)N2C[C@H](O)C[C@H]2C(=O)N[C@@H]([C@@H](C)c2c[nH]c3ccccc23)C(=O)N[C@@H](CO)C(=O)N[C@@H](Cc2c[nH]c3ccccc23)C(=O)N(C)[C@@H](C)C(=O)N(C)[C@@H](C)C(=O)N[C@@H](CC(C)C)C(=O)N[C@H](C(=O)NCC(N)=O)CSCC(=O)N[C@@H](Cc2ccc(O)cc2)C(=O)N1C [Example 10536] ({CH2CO}-Y[NMeNle]NPHQ[Hyp][Trp(βS-Me)]SW[NMeA][NMeA]LCG-NH2; thioether N-14)

# Same assay, conditions: PD-L1-His 10 nM, PD-1-Ig 20 nM; read-out: HTRF Human PD-L1/PD-1 Binding Assay IC50
row,IC50,Compound
1,0.215 µM,CCCC[C@H]1C(=O)N(C)CC(=O)N[C@@H](CO)C(=O)N[C@@H](C)C(=O)N(C)[C@@H](Cc2ccccc2)C(=O)N[C@@H](Cc2ccc(O)cc2)C(=O)N2CCCC[C@@H]2C(=O)N[C@@H](Cc2c[nH]c3ccccc23)C(=O)N[C@@H](Cc2ccc(O)cc2)C(=O)N[C@@H](CC(C)C)C(=O)N[C@H](C(=O)NCC(N)=O)CSCC(=O)N[C@@H](Cc2ccccc2)C(=O)N(C)[C@@H](Cc2ccccc2)C(=O)N1C [Example 10057] ({CH2CO}-F[NMeF][NMeNle][Sar]SA[NMeF]Y[dPip]WYLCG-NH2; thioether N-13)
